# Results reported in the supplement of paper PMC10307832.
# Experiments:
# Assay in all cases: relative viability (nuclei count vs DMSO), 5 days (fraction); higher = more cells survive
# QS11 + Alpelisib = compound: C1CC2=C(C1)C=C(C=C2)OC3=NC(=C4C(=N3)N(C=N4)CC5=CC=C(C=C5)C6=CC=CC=C6)N[C@@H](CC7=CC=CC=C7)CO [QS11] + Cc1nc(NC(=O)N2CCC[C@H]2C(N)=O)sc1-c1ccnc(C(C)(C)C(F)(F)F)c1 [Alpelisib] (partner 2 µM)
# Procedure, shortened: (§1)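 One day after seeding in 1536-well plates, lung cancer cell lines were dosed by pin tool. Dosing was either single-drug or a fixed anchor-drug dose plus five library-drug doses (not always all listed) in √10 steps. After 5 days, nuclei were stained in one fix-and-stain step and counted on 4× images, and relative viability is the nuclei count of treated wells over that of vehicle wells, given as the median of duplicate plates.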
# Darinaparsin + Dasatinib = compound: C[As](C)SC[C@H](NC(=O)CC[C@H](N)C(=O)O)C(=O)NCC(=O)O [Darinaparsin] + Cc1nc(Nc2ncc(C(=O)Nc3c(C)cccc3Cl)s2)cc(N2CCN(CCO)CC2)n1 [Dasatinib] (partner 0.075 µM)
# Procedure, shortened: as §1
# AZ628 + Vorinostat = compound: CC1=C(C=C(C=C1)NC(=O)C2=CC(=CC=C2)C(C)(C)C#N)NC3=CC4=C(C=C3)N=CN(C4=O)C [AZ628] + O=C(CCCCCCC(=O)Nc1ccccc1)NO [Vorinostat] (partner 1 µM)
# Procedure, shortened: as §1
# AZ628 + Trametinib = compound: CC1=C(C=C(C=C1)NC(=O)C2=CC(=CC=C2)C(C)(C)C#N)NC3=CC4=C(C=C3)N=CN(C4=O)C [AZ628] + CC(=O)Nc1cccc(-n2c(=O)n(C3CC3)c(=O)c3c(Nc4ccc(I)cc4F)n(C)c(=O)c(C)c32)c1 [Trametinib] (partner 0.02 µM)
# Procedure, shortened: as §1
Cell Line,relative viability (QS11 + Alpelisib; first compound 0.08 µM),relative viability (QS11 + Alpelisib; first compound 0.253 µM),relative viability (QS11 + Alpelisib; first compound 2.53 µM),relative viability (QS11 + Alpelisib; first compound 8 µM),relative viability (Darinaparsin + Dasatinib; first compound 0.08 µM),relative viability (Darinaparsin + Dasatinib; first compound 0.8 µM),relative viability (Darinaparsin + Dasatinib; first compound 2.53 µM),relative viability (Darinaparsin + Dasatinib; first compound 8 µM),relative viability (AZ628 + Vorinostat; first compound 0.08 µM),relative viability (AZ628 + Vorinostat; first compound 0.253 µM),relative viability (AZ628 + Vorinostat; first compound 0.8 µM),relative viability (AZ628 + Vorinostat; first compound 2.53 µM),relative viability (AZ628 + Vorinostat; first compound 8 µM),relative viability (AZ628 + Trametinib; first compound 0.08 µM),relative viability (AZ628 + Trametinib; first compound 0.253 µM),relative viability (AZ628 + Trametinib; first compound 0.8 µM),relative viability (AZ628 + Trametinib; first compound 2.53 µM),relative viability (AZ628 + Trametinib; first compound 8 µM),relative viability (QS11 + Alpelisib; first compound 0.8 µM)
LOU-NH91,0.687,0.636,0.691,0.697,0.632,0.512,0.49,0.622,1,0.911,0.904,0.794,0.675,0.795,0.787,0.713,0.726,0.668,–
LU99A,0.486,0.528,0.367,0.405,0.627,0.59,0.473,0.519,0.511,0.473,0.496,0.52,0.33,0.296,0.277,0.245,0.244,0.288,0.596
LXF-289,1.07,1.05,0.906,0.85,0.228,0.204,0.164,0.213,0.817,0.755,0.701,0.71,0.473,0.603,0.477,0.472,0.525,0.38,0.764
NCI-H23,0.647,0.638,0.508,0.69,0.909,0.836,0.714,0.843,0.709,0.555,0.524,0.404,0.333,0.178,0.29,0.211,0.191,0.23,0.557
NCI-H322M,0.84,0.83,0.863,0.867,0.269,0.233,0.251,0.257,1.03,0.856,0.989,0.937,0.816,0.473,0.511,0.489,0.536,0.617,0.87
NCI-H358,0.914,0.857,1.5,1.35,0.135,0.157,0.17,0.162,0.762,0.424,0.386,0.336,0.262,0.113,0.112,0.104,0.102,0.134,1.02
NCI-H441,0.785,0.843,0.794,0.706,0.6,0.581,0.558,0.737,0.782,0.749,0.67,0.673,0.68,0.405,0.306,0.386,0.283,0.437,0.784
NCI-H460,0.515,0.498,0.3,0.0919,0.632,0.478,0.473,0.721,0.728,0.715,0.644,0.641,0.24,0.161,0.0829,0.0419,0.0397,0.0115,0.554
NCI-H520,–,0.912,0.92,0.986,0.215,0.237,0.189,0.212,0.684,0.628,0.702,0.81,0.716,0.469,0.459,0.273,0.23,0.16,0.921
NCI-H596,0.4,0.494,0.468,0.443,0.624,0.625,0.632,0.566,0.559,0.594,0.69,0.686,0.682,0.779,0.711,0.622,0.786,0.756,0.467
NCI-H647,1.24,1.25,1.08,0.862,0.21,0.205,0.149,0.233,0.54,0.845,0.524,0.833,0.488,0.277,0.233,0.22,0.22,0.22,1.02
NCI-H650,0.988,1,0.909,1.18,0.529,0.515,0.42,0.486,0.454,0.63,0.554,0.673,0.44,0.568,0.393,0.357,0.365,0.282,1.14
NCI-H661,0.657,0.599,0.637,0.646,0.981,0.772,0.89,0.948,0.831,0.916,0.818,0.778,0.743,0.509,0.426,0.413,0.377,0.535,0.658
NCI-H727,0.509,0.99,0.54,0.325,0.401,0.356,0.414,0.416,1.25,–,–,0.891,0.352,0.338,–,–,0.385,0.357,0.593
NCI-H838,1.1,0.954,0.919,0.884,0.301,0.286,0.271,0.338,0.753,0.72,0.677,0.722,0.718,0.491,0.466,0.486,0.477,0.556,0.755
NCI-H1355,0.776,0.748,0.689,0.763,0.717,0.69,0.596,0.689,0.69,0.623,0.581,0.598,0.418,0.384,0.303,0.28,0.292,0.286,0.779
NCI-H1395,–,1.2,0.912,1.53,0.438,0.377,0.427,0.405,0.936,0.61,0.665,0.62,0.607,0.954,0.739,0.794,0.732,0.776,1.12
NCI-H1437,1.1,1.13,0.9,0.879,0.482,0.375,0.286,0.48,0.834,0.765,0.752,0.829,0.776,0.494,0.549,0.471,0.557,0.566,0.834
NCI-H1651,1.06,1.1,0.896,0.713,0.51,0.476,0.365,0.416,0.584,0.491,0.573,0.559,0.561,0.848,0.83,0.858,0.826,0.77,0.822
NCI-H1666,0.917,1.03,0.587,0.382,0.817,0.814,0.799,0.832,1.07,0.953,0.995,0.764,0.916,0.758,0.697,0.841,0.6,0.777,0.708
NCI-H1734,0.681,0.719,0.581,0.65,0.461,0.441,0.44,0.49,0.923,0.773,0.761,0.772,0.463,0.42,0.386,0.313,0.344,0.301,0.697
NCI-H1755,1.07,0.947,0.835,0.857,0.438,0.448,0.346,0.468,0.78,0.779,0.84,0.755,0.679,0.63,0.604,0.483,0.561,0.305,0.632
NCI-H1793,0.719,0.645,0.827,0.791,0.421,0.366,0.348,0.424,0.969,0.632,0.835,0.602,0.484,0.388,0.332,0.282,0.198,0.206,0.637
NCI-H1915,1.06,1.16,1.06,0.999,0.329,0.32,0.317,0.323,0.549,0.606,0.537,0.461,0.462,0.139,0.128,0.109,0.144,0.0954,–
NCI-H1944,0.794,0.896,0.826,0.846,0.203,0.2,0.208,0.192,0.613,0.547,0.508,0.468,0.444,0.321,0.305,0.254,0.295,0.33,–
NCI-H1975,0.654,0.727,0.887,0.9,0.42,0.404,0.388,0.386,0.62,0.668,0.679,0.658,0.42,0.331,0.272,0.228,0.259,0.288,0.747
NCI-H1993,0.559,0.643,0.699,0.668,0.68,0.532,0.535,0.575,0.751,0.774,0.812,0.62,0.547,0.456,0.516,0.479,0.535,0.667,0.693
NCI-H2009,1.18,1.19,0.969,0.999,0.307,0.32,0.266,0.233,0.595,0.783,0.568,0.612,0.405,0.208,0.177,0.198,0.179,0.194,1.12
